This test deals with MIC causing microbes. The test can be described thus: Synergistic effect of components: antimicrobial screening against MIC causing microbes and their mediated corrosion. The class given is cell-based. The note with it: dosed at 10000 ppm. On the procedure: To test the MIC activity, the microbecidal composition was subjected to antimicrobial screening against MIC causing microbes and their mediated corrosion. 10 gram of muck sample from a pipeline having MIC was used as inoculum. The growth of the microbes was followed by visual observation as well as by counting the CFU/ml on respective media. The growth was compared with control i.e., without microbecidal composition. Further, individual components of the microbecidal composition were evaluated to evaluate the synergistic effect of the composition (Table 1). As observed from the Table-1 below, when the individual components of the microbecidal composition was used, no significant MIC reduction was observed.

SMILES strings stand for the structures.

Regarding `CCO` [Alcohol], the “Percentage (%) reduction in MIC” value (base corrosion rate 12 mpy) stood at 10%. In addition, the “After dosing of Microbecidal composition (mpy)” value (base corrosion rate without composition 12 mpy, muck sample inoculum) came to 10.75 mpy.

Source of the values: patent US11739252B2, “Microbecidal composition and a method for mitigating internal microbiological influenced corrosion in petroleum transporting pipelines” (Indian Oil Corporation Limited, priority 2020, dated 2023).
